Data: patent US20170275270A1, “BENZYL SUBSTITUTED INDAZOLES” (Bayer Pharma Aktiengesellschaft, priority 2014, published 2017)

What follows are molecules tested against T1, catalytic domain of human Bub1 (amino acids 704-1085) (Homo sapiens, UniProt O43683) (assay: Bub1 kinase assay (TR-FRET)). Details: Biological Assay 1: Bub1 kinase assay median IC50, 10 μM ATP.
T1 construct: catalytic domain of human Bub1 (amino acids 704-1085); His6 (N); made in house; host or cells: Hi5 insect cells
T1 sequence (O43683 704-1085): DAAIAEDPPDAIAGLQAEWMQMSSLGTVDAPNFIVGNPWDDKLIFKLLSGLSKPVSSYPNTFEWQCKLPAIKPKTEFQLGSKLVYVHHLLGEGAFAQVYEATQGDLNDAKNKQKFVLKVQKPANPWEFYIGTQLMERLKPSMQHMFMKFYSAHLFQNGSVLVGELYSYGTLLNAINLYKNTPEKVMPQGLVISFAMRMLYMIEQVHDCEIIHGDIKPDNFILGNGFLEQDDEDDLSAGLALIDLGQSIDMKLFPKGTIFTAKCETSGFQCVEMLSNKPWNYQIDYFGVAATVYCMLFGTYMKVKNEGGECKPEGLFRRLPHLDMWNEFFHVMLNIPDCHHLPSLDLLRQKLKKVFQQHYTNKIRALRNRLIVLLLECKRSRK
Format: biochemical
Outline: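 TR-FRET read-out (Eu-anti-mouse IgG/anti-phosphoserine antibody to streptavidin-XL665 on biotinylated peptide) after EDTA stop and 1 h complex formation at 22° C. Kinase reaction ran 60 min at 22° C with 1:3.4 serial dilutions from 2 mM DMSO stocks. IC50 from 4-parameter logistic fit of normalized inhibition.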
An IC50 of 0.059 µM was found for COCCOc1cc(F)c(Cn2nc(-c3nc4c(c(Nc5cc(C)ncc5C)n3)CCC(C)(C)C4)c3ccccc32)c(F)c1 [Example 2-15-13, 2-{1-[2,6-difluoro-4-(2-methoxyethoxy)benzyl]-1H-indazol-3-yl}-N-(2,5-dimethylpyridin-4-yl)-7,7-dimethyl-5,6,7,8-tetrahydroquinazolin-4-amine] in this work. An IC50 of 0.0063 µM was found for COCCOc1cc(F)c(Cn2nc(-c3ncc(C4CCNCC4)c(Nc4ccnc(NC(C)=O)c4)n3)c3ccccc32)c(F)c1 [Example 2-17-8, N-(4-{[2-{1-[2,6-difluoro-4-(2-methoxyethoxy)benzyl]-1H-indazol-3-yl}-5-(piperidin-4-yl)pyrimidin-4-yl]amino}pyridin-2-yl)acetamide] in this work. An IC50 of 0.0075 µM was found for COCCOc1cc(F)c(Cn2nc(-c3ncc(C4CCNCC4)c(Nc4ccncc4Cl)n3)c3ccccc32)c(F)c1 [Example 2-17-9, N-(3-chloropyridin-4-yl)-2-{1-[2,6-difluoro-4-(2-methoxyethoxy)benzyl]-1H-indazol-3-yl}-5-(piperidin-4-yl)pyrimidin-4-amine] in this work. An IC50 of 0.085 µM was found for COCCOc1cc(F)c(Cn2nc(-c3ncc(C4CCNCC4)c(Nc4ccnc(C)n4)n3)c3ccccc32)c(F)c1 [Example 2-17-10, 2-{1-[2,6-difluoro-4-(2-methoxyethoxy)benzyl]-1H-indazol-3-yl}-N-(2-methylpyrimidin-4-yl)-5-(piperidin-4-yl)pyrimidin-4-amine] in this work. An IC50 of 0.025 µM was found for CCOc1cc(F)c(Cn2nc(-c3nc4c(c(Nc5ccncc5C)n3)CSC4)c3ccccc32)c(F)c1 [Example 2-19-2, 2-[1-(4-ethoxy-2,6-difluorobenzyl)-1H-indazol-3-yl]-N-(3-methylpyridin-4-yl)-5,7-dihydrothieno[3,4-d]pyrimidin-4-amine] in this work. An IC50 of 0.14 µM was found for CCOc1cc(F)c(Cn2nc(-c3nc4c(c(Nc5ccnc(C)c5)n3)CS(=O)(=O)C4)c3ccccc32)c(F)c1 [Example 2-19-5, 2-[1-(4-ethoxy-2,6-difluorobenzyl)-1H-indazol-3-yl]-N-(2-methylpyridin-4-yl)-5,7-dihydrothieno[3,4-d]pyrimidin-4-amine 6,6-dioxide] in this work. An IC50 of 0.094 µM was found for CCOc1cc(F)c(Cn2nc(-c3nc(CN4CCOCC4)cc(Nc4ccnc(OC)c4)n3)c3ccccc32)c(F)c1 [Example 2-19-10, 2-[1-(4-ethoxy-2,6-difluorobenzyl)-1H-indazol-3-yl]-N-(2-methoxypyridin-4-yl)-6-(morpholin-4-ylmethyl)pyrimidin-4-amine] in this work. An IC50 of 0.46 µM was found for CCOc1cc(F)c(Cn2nc(-c3nc4c(c(Nc5ccnc(C(F)F)c5)n3)CS(=O)(=O)C4)c3ccccc32)c(F)c1 [Example 2-19-14, N-[2-(difluoromethyl)pyridin-4-yl]-2-[1-(4-ethoxy-2,6-difluorobenzyl)-1H-indazol-3-yl]-5,7-dihydrothieno[3,4-d]pyrimidin-4-amine 6,6-dioxide] in this work. An IC50 of 0.1 µM was found for CCOc1cc(F)c(Cn2nc(-c3nc4c(c(Nc5ccnc(C)c5)n3)COC4)c3ccccc32)c(F)c1 [Example 2-19-16, 2-[1-(4-ethoxy-2,6-difluorobenzyl)-1H-indazol-3-yl]-N-(2-methylpyridin-4-yl)-5,7-dihydrofuro[3,4-d]pyrimidin-4-amine] in this work. An IC50 of 0.084 µM was found for CCOc1cc(F)c(Cn2nc(-c3nc4c(c(Nc5ccncc5C)n3)COC4)c3ccccc32)c(F)c1 [Example 2-19-18, 2-[1-(4-ethoxy-2,6-difluorobenzyl)-1H-indazol-3-yl]-N-(3-methylpyridin-4-yl)-5,7-dihydrofuro[3,4-d]pyrimidin-4-amine] in this work. An IC50 of 0.012 µM was found for CCOc1cc(F)c(Cn2nc(-c3nc4c(c(Nc5ccncc5)n3)CCCC4)c3ccccc32)c(F)c1 [Example 2-19-21, 2-[1-(4-ethoxy-2,6-difluorobenzyl)-1H-indazol-3-yl]-N-(pyridin-4-yl)-5,6,7,8-tetrahydroquinazolin-4-amine] in this work.
